Like-named read-outs stand apart in the source and are kept apart here.
Columns and labels:
murine CCR2 (mCCR2) = biological target: T1, murine CCR2 (mCCR2) (Mus musculus, UniProt P51683); test: [3H]INCB3344 association, dissociation and competition association (kinetic) assays on CHO-mCCR2 membranes; assay type: binding
T1 construct: expressed in transfected cells; host or cells: CHO cells, transient transfection (PEI) with pcDNA3.1+ plasmid; membrane preparation
Description: Radioligand binding assays were performed in a 100 µL reaction volume containing 50 mM Tris-HCl buffer (pH 7.4), 5 mM MgCl2, 0.1% 3-[(3-cholamidopropyl)-dimethylammonio]-1-propanesulfonic acid (CHAPS), 5 nM [^3H]INCB3344 and 50 to 60 µg of membrane protein at 25 °C. Non-specific binding was determined with 10 μM of the cold ligand INCB3344. Displacement assays were carried out using 9 concentrations of competing ligand, ranging from 0.1 nM to 100 μM, for 120 min of incubation. The kinetic parameters of 15a were also determined at 25 °C using a competition association assay as previously described, [27]. For association and competition association experiments, CHO-mCCR2 membranes were added to the reaction volume at different time points, in the absence or presence of 30 nM of competing ligand. For dissociation experiments, CHO-mCCR2 membranes were first incubated with 5 nM [^3H]INCB3344 for 60 min. Dissociation was initiated by addition of 10 µM of INCB3344 at different time points. For all experiments, incubation was terminated by dilution with ice-cold 50 mM Tris-HCl buffer supplemented with 5 mM MgCl2 and 0.05% CHAPS. Separation of bound from free radioligand was performed by rapid filtration over a 96-well GF/B filter plate using a Perkin Elmer Filtermate-harvester (Perkin Elmer, Groningen, the Netherlands) in the case of displacement assays; or over GF/B filters using a Brandel harvester 24 (Brandel, Gaithersburg, MD, USA) for kinetic assays. Filter-bound radioactivity was determined by scintillation spectrometry after addition of Microscint scintillation cocktail (Perkin-Elmer, Groningen, the Netherlands). The P-E 2450 Microbeta2 plate counter (Perkin Elmer, Groningen, The Netherlands) was used for displacement assays, and the TRI Carb 2900 TR counter (Perkin Elmer, Groningen, The Netherlands) for kinetic assays.
All radioligand binding assays were analyzed using Prism 6.0 (GraphPad software, San Diego, CA, USA). All data shown represent means ± SEM of at least three independent experiments performed in duplicate. Ki values were calculated from IC50 values obtained by non-linear regression analysis of the displacement assays and by using the Cheng-Prusoff equation[47]. Dissociation rate constants k off were determined by fitting the dissociation data using an exponential decay model. Association rate constants k on were obtained by converting the apparent association rate constants k obs according to the equation k on = (k obs − k off)/[L], in which L is the radioligand concentration used for the experiments, k obs is the constant rate determined using exponential association analysis and k off represents the mean k off value obtained independently in the dissociation experiments. The kinetic profile of compound 15a was determined by calculation of its kinetic rate index (KRI) value. The KRI values were calculated according to the equation KRI = Bt1/Bt2, in which Bt represents the specific radioligand binding measured at t1 = 15 min and t2 = 210 min. In addition, the association and dissociation rates of 15a were obtained by nonlinear regression analysis of the competition association data using the equations described by Motulsky and Mahan[27]. […] In addition, the RT was calculated by obtaining the reciprocal of the k off. Data obtained from in vivo experiments are expressed as mean ± SEM. […] Non-Gaussian distributed data were analyzed using a two-tailed Mann-Whitney U test. […]

[1] = test system: leucocyte migration towards the peritoneal cavity; test: Pilot study: leucocyte migration towards the peritoneal cavity; assay type: in vivo, mouse; conditions: data not shown
Description: To measure plasma concentrations of 15a over time, Western type diet fed mice were injected with 5 mg/kg 15a, after which blood samples were taken at fixed time points (1, 2, 6 and 24 hours after injection). Blood samples were processed as described below under “Measurement of 15a plasma levels”. The final dose of 5 mg/kg/day was based on a pilot study in which two different doses (1.5 and 5 mg/kg/day) were tested using leucocyte migration towards the peritoneal cavity as a read-out. […] In addition, the dose of 5 mg/kg was also based on a previous study with TAK-779[38], in which a dose of 5 mg/kg was used.

CCR2 = test: Pharmacokinetics-based prediction of target occupancy; design: species or system mouse; conditions: calculated/simulated from plasma concentrations, single dose 5 mg/kg i.p., for 24 hours
Description: The target occupancy was calculated for each measurement of the drug concentration, according to equation (1), in which [C] is the concentration of the drug in the blood and KD is the drug target affinity.1 TargetOccupancy(%)=[C]/[C]+KD×100%
In addition, a simple mathematical model was used to simulate target occupancy for the observed in vivo pharmacokinetics and in vitro binding kinetics according to the equations in the next section (equations (3–5)).
To determine the maximal value of k off that would prolong the receptor occupancy even further, we used equation (2)[28], in which BF represents the percentage of target occupancy divided by 100 and t 1/2el represents the plasma elimination half-life (0.693/k el). In this case we set BF to 0.90, as 90% represents the minimum value of target occupancy to achieve efficacy. To obtain the elimination rate constant of compound 15a, a linear regression analysis of the natural logarithm of the concentrations versus time was performed, and the slope coefficient was used as the elimination rate constant k el.2 koff<0.693⋅(1−BF)/t1/2el
The concentrations of unbound drug in the blood [C] and target-bound drug [LR] were modeled according to equations (3–5). […]
The concentration of the target-bound drug is calculated according to equation (5):5 d[LR]/dt=kon⋅[C]⋅[Rfree]−koff⋅[LR] […]

hCCR2b = conditions: cited from earlier work

T1 sequence (P51683 whole entry): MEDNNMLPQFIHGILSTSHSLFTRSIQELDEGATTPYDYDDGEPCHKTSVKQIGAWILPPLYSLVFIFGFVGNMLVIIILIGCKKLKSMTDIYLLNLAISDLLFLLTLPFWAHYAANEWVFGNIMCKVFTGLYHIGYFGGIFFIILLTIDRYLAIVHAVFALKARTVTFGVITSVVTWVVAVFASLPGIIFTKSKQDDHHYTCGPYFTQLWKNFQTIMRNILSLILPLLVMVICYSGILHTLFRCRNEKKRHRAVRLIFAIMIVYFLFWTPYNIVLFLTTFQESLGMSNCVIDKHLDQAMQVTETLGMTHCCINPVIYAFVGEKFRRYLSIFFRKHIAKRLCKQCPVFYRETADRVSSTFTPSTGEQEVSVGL

In the case of `CC(C)[C@]1(C(=O)N2CCc3ccc(C(F)(F)F)cc3C2)CC[C@@H](N[C@@H]2CCc3cc(Br)ccc32)C1` [15a, ((1S,3R)-3-(((R)-5-bromo-2,3-dihydro-1H-inden-1-yl)amino)-1-isopropylcyclopentyl)(7-(trifluoromethyl)-3,4-dihydroisoquinolin-2(1H)-yl)methanone], the kon (murine CCR2 (mCCR2); mCCR2, 25 °C) is reported as 117000 M⁻¹ s⁻¹, the “KRI (kinetic rate index)” value (murine CCR2 (mCCR2); mCCR2, 25 °C, KRI = Bt1/Bt2, t1 = 15 min, t2 = 210 min) is reported as 1.6 and the Kd (murine CCR2 (mCCR2); mCCR2, 25 °C, read-out: K D (kinetic, k off/k on)) is reported as 7.4 ± 1.5 nM. For the same compound, the koff (murine CCR2 (mCCR2); mCCR2, 25 °C, read-out: k off (converted)) was 0.00085 s⁻¹, the koff (murine CCR2 (mCCR2); mCCR2, corresponding to 0.051 min^−1, read-out: k off (as set for the simulations) (converted)) was 0.00085 s⁻¹ and the “effective in inhibiting leucocyte migration” value ([1]; 1.5 mg/kg per day) was “not effective”. For the same compound, the “effective in inhibiting leucocyte migration” value ([1]; 5 mg/kg per day) was “was”, the “target occupancy (CCR2)” value (CCR2) was over 90% and the RT (hCCR2b; hCCR2, ref Vilums et al. [24]) was 714 min. The “lifetime (RT) on hCCR2” value (hCCR2b; hCCR2, ref [24]) was “more than 10 hours”, the Ki (hCCR2b; hCCR2, ref [24], read-out: affinity for human CCR2) was 2.4 nM and the KRI (hCCR2b; hCCR2b, ref Vilums et al. [24]) was 1.7. The Kd (hCCR2b; hCCR2b, ref Vilums et al. [24]) was 0.175 nM, the koff (hCCR2b; hCCR2b, ref Vilums et al. [24]) was 2.33e-05 s⁻¹ and the kon (hCCR2b; hCCR2b, ref Vilums et al. [24]) was 130000 M⁻¹ s⁻¹.
